Experimental data from US12528778B2, “Microbiocidal derivatives” (SYNGENTA CROP PROTECTION AG, priority 2019, dated 2026).

Tests used:
[1] = tested on: Monographella nivalis (Microdochium nivale); test: Monographella nivalis (Microdochium nivale) / liquid culture (foot rot cereals); type: cell-based; conditions: PDB liquid culture, 24° C., growth inhibition determined photometrically 4-5 days after application, vs untreated control
Protocol: (§1) Example B5: Monographella nivalis (Microdochium nivale)/Liquid Culture (Foot Rot Cereals) Conidia of the fungus from cryogenic storage are directly mixed into nutrient broth (PDB potato dextrose broth). After placing a (DMSO) solution of test compound into a microtiter plate (96-well format), the nutrient broth containing the fungal spores is added. The test plates are incubated at 24° C. and the inhibition of growth is determined photometrically 4-5 days after application. […] […]-49, and P-50.

[2] = tested on: Mycosphaerella graminicola (Septoria tritici); test: Mycosphaerella graminicola (Septoria tritici) / liquid culture (Septoria blotch); type: cell-based; conditions: Zymoseptoria tritici, PDB liquid culture, 24° C., growth inhibition determined photometrically 4-5 days after application, vs untreated control
Protocol: Example B12: Mycosphaerella graminicola (Septoria tritici)/Liquid Culture (Septoria Blotch) Conidia of the fungus from cryogenic storage are directly mixed into nutrient broth (PDB potato dextrose broth). After placing a (DMSO) solution of test compound into a microtiter plate (96-well format), the nutrient broth containing the fungal spores is added. The test plates are incubated at 24° C. and the inhibition of growth is determined photometrically 4-5 days after application. […] […]-48, and P-49.

[3] = tested on: Glomerella lagenarium (Colletotrichum lagenarium); test: Glomerella lagenarium (Colletotrichum lagenarium) / liquid culture (anthracnose); type: cell-based; conditions: Colletotrichum orbiculare, PDB liquid culture, 24° C., growth inhibition measured photometrically 3-4 days after application, vs untreated control
Protocol: as §1, with “B2: Glomerella lagenarium (Colletotrichum lagenarium)/Liquid” for “B5: Monographella nivalis (Microdochium nivale)/Liquid”, “(Anthracnose)” for “(Foot Rot Cereals)”, “measured” for “determined”, “3-4” for “4-5”

[4] = tested on: Mycosphaerella arachidis (Cercospora arachidicola); test: Mycosphaerella arachidis (Cercospora arachidicola) / liquid culture (early leaf spot); type: cell-based; conditions: PDB liquid culture, 24° C., growth inhibition determined photometrically 4-5 days after application, vs untreated control
Protocol: Example B6: Mycosphaerella arachidis (Cercospora arachidicola)/Liquid Culture (Early Leaf Spot) Conidia of the fungus from cryogenic storage are directly mixed into nutrient broth (PDB potato dextrose broth). After placing a (DMSO) solution of test compound into a microtiter plate (96-well format), the nutrient broth containing the fungal spores is added. The test plates are incubated at 24° C. and the inhibition of growth is determined photometrically 4-5 days after application. […] […]-44, and P-48.

[5] = tested on: Blumeria graminis f. sp. tritici (Erysiphe graminis f. sp. tritici); test: Blumeria graminis f. sp. tritici / wheat / leaf disc preventative (powdery mildew on wheat); type: in vivo; conditions: foliar, wheat leaf segments cv. Kanzler, inoculated 1 day after application, assessed 6-8 days after application, vs untreated control
Protocol: Example B3: Blumeria graminis f. sp. tritici (Erysiphe graminis f. so. tritici)/Wheat/Leaf Disc Preventative (Powdery Mildew on Wheat) Wheat leaf segments cv. Kanzler are placed on agar in a multiwell plate (24-well format) and sprayed with the formulated test compound diluted in water. The leaf disks are inoculated by shaking powdery mildew infected plants above the test plates 1 day after application. The inoculated leaf disks are incubated at 20°° C. and 60% rh under a light regime of 24 h darkness followed by 12 h light/12 h darkness in a climate chamber and the activity of a compound is assessed as percent disease control compared to untreated when an appropriate level of disease damage appears on untreated check leaf segments (6-8 days after application). […]-45, and P-50.

Alternaria solani = Alternaria solani / tomato / leaf disc (early blight); type: in vivo; conditions: foliar, tomato leaf disks cv. Baby, inoculated 2 days after application, assessed 5-7 days after application, vs untreated control
Protocol: Example B1: Alternaria solani/Tomato/Leaf Disc (Early Blight) Tomato leaf disks cv. Baby are placed on agar in multiwell plates (24-well format) and sprayed with the formulated test compound diluted in water. The leaf disks are inoculated with a spore suspension of the fungus 2 days after application. The inoculated leaf disks are incubated at 23° C./21° C. […] […]-43, and P-44.

[6] = tested on: Puccinia recondita f. sp. tritici; test: Puccinia recondita f. sp. tritici / wheat / leaf disc preventative (brown rust); type: in vivo; conditions: foliar, wheat leaf segments cv. Kanzler, inoculated 1 day after application, assessed 7-9 days after application, vs untreated control
Protocol: Example B8: Puccinia recondita f. sp. tritici/Wheat/Leaf Disc Preventative (Brown rust) Wheat leaf segments cv. Kanzler are placed on agar in multiwell plates (24-well format) and sprayed with the formulated test compound diluted in water. The leaf disks are inoculated with a spore suspension of the fungus 1 day after application. The inoculated leaf segments are incubated at 19° C. and 75% rh under a light regime of 12 h light/12 h darkness in a climate cabinet and the activity of a compound is assessed as percent disease control compared to untreated when an appropriate level of disease damage appears in untreated check leaf segments (7-9 days after application).

[7] = tested on: Magnaporthe grisea (Pyricularia oryzae); test: whole plant or invertebrate; type: in vivo; conditions: foliar, read-out: control of Magnaporthe grisea

COc1ncc(NC2CCCC2)nc1C(=O)NC1CCC1(C)C (centres unmarked) [Compound P-1, 6-(cyclopentylamino)-N-(2,2-dimethylcyclobutyl)-3-methoxy-pyrazine-2-carboxamide]
≥ 80%: inhibition of growth at 20 ppm [1] | inhibition of growth at 20 ppm [2] | inhibition of growth at 20 ppm [3] | inhibition of growth at 20 ppm [4]

COc1ncc(Nc2ccccc2)nc1C(=O)NC1CCC1(C)C (centres unmarked) [Compound P-4, 6-anilino-N-(2,2-dimethylcyclobutyl)-3-methoxy-pyrazine-2-carboxamide]
≥ 80%: pest or weed control at 200 ppm [5] | inhibition of growth at 20 ppm [1] | inhibition of growth at 20 ppm [2] | pest or weed control at 200 ppm (Alternaria solani) | inhibition of growth at 20 ppm [3] | inhibition of growth at 20 ppm [4] | pest or weed control at 200 ppm [6]

COc1ncc(Nc2cccc(F)c2)nc1C(=O)NC1CCC1(C)C (centres unmarked) [Compound P-5, N-(2.2-dimethylcyclobutyl)-6-(3-fluoroanilino)-3-methoxy-pyrazine-2-carboxamide]
≥ 80%: pest or weed control at 200 ppm [5] | inhibition of growth at 20 ppm [1] | inhibition of growth at 20 ppm [2] | pest or weed control at 200 ppm [7] | pest or weed control at 200 ppm (Alternaria solani) | inhibition of growth at 20 ppm [3] | inhibition of growth at 20 ppm [4] | pest or weed control at 200 ppm [6]

COc1ncc(NCC2CC2)nc1C(=O)NC1CCC1(C)C (centres unmarked) [Compound P-9, 6-(cyclopropylmethylamino)-N-(2,2-dimethylcyclobutyl)-3-methoxy-pyrazine-2-carboxamide]
≥ 80%: pest or weed control at 200 ppm [5] | inhibition of growth at 20 ppm [1] | inhibition of growth at 20 ppm [2] | pest or weed control at 200 ppm (Alternaria solani) | inhibition of growth at 20 ppm [3] | inhibition of growth at 20 ppm [4] | pest or weed control at 200 ppm [6]

COc1ncc(Nc2cnsc2)nc1C(=O)NCc1ccc(Oc2ccccc2)cc1 [Compound P-13, 6-(isothiazol-4-ylamino)-3-methoxy-N-[(4-phenoxyphenyl)methyl] pyrazine-2-carboxamide]
≥ 80%: inhibition of growth at 20 ppm [1] | inhibition of growth at 20 ppm [2] | pest or weed control at 200 ppm [7] | pest or weed control at 200 ppm (Alternaria solani) | inhibition of growth at 20 ppm [3] | inhibition of growth at 20 ppm [4]

COc1ncc(Nc2cc(F)cc(F)c2)nc1C(=O)NC1C2CCOC2C1(C)C (centres unmarked) [Compound P-16, 6-(3,5-difluoroanilino)-N-(7,7-dimethyl-2-oxabicyclo[3.2.0]heptan-6-yl)-3-methoxy-pyrazine-2-carboxamide]
≥ 80%: pest or weed control at 200 ppm [5] | inhibition of growth at 20 ppm [1] | inhibition of growth at 20 ppm [2] | pest or weed control at 200 ppm [7] | pest or weed control at 200 ppm (Alternaria solani) | inhibition of growth at 20 ppm [3] | inhibition of growth at 20 ppm [4]

COc1ncc(Nc2cc(F)cc(F)c2)nc1C(=O)NC1COC2(CC2)C1 (centres unmarked) [Compound P-20, 6-(3,5-difluoroanilino)-3-methoxy-N-(4-oxaspiro[2.4]heptan-6-yl)pyrazine-2-carboxamide]
≥ 80%: pest or weed control at 200 ppm [5] | inhibition of growth at 20 ppm [1] | inhibition of growth at 20 ppm [2] | pest or weed control at 200 ppm [7] | pest or weed control at 200 ppm (Alternaria solani) | inhibition of growth at 20 ppm [3] | inhibition of growth at 20 ppm [4] | pest or weed control at 200 ppm [6]

COc1ncc(Nc2cc(F)cc(F)c2)nc1C(=O)NCC1(C)CCOC1 (centres unmarked) [Compound P-21]
≥ 80%: pest or weed control at 200 ppm [5] | inhibition of growth at 20 ppm [1] | inhibition of growth at 20 ppm [2] | pest or weed control at 200 ppm [7] | inhibition of growth at 20 ppm [3]

COc1ncc(Nc2cc(F)cc(F)c2)nc1C(=O)NC1COC(C2CC2)C1 (centres unmarked) [Compound P-24, N-(5-cyclopropyltetrahydrofuran-3-yl)-6-(3,5-difluoroanilino)-3-methoxy-pyrazine-2-carboxamide]
≥ 80%: pest or weed control at 200 ppm [5] | inhibition of growth at 20 ppm [1] | inhibition of growth at 20 ppm [2] | inhibition of growth at 20 ppm [3] | inhibition of growth at 20 ppm [4]

COc1ncc(Nc2cc(F)cc(F)c2)nc1C(=O)NC1CC2CCOC21 (centres unmarked) [Compound P-28, 6-(3,5-difluoroanilino)-3-methoxy-N-(2-oxabicyclo[3.2.0]heptan-7-yl)pyrazine-2-carboxamide]
≥ 80%: pest or weed control at 200 ppm [5] | pest or weed control at 200 ppm [7] | pest or weed control at 200 ppm (Alternaria solani) | inhibition of growth at 20 ppm [3]

COc1ncc(Nc2cc(F)cc(F)c2)nc1C(=O)NCc1cccc2c1OC(F)(F)O2 [Compound P-29, 6-(3,5-difluoroanilino)-N-[(2,2-difluoro-1.3-benzodioxol-4-yl)methyl]-3-methoxy-pyrazine-2-carboxamide]
≥ 80%: inhibition of growth at 20 ppm [1] | inhibition of growth at 20 ppm [2] | pest or weed control at 200 ppm [7] | inhibition of growth at 20 ppm [3] | inhibition of growth at 20 ppm [4] | pest or weed control at 200 ppm [6]

COc1ncc(Nc2cc(F)cc(F)c2)nc1C(=O)NCc1ccc(Oc2ccccc2)cc1 [Compound P-30]
≥ 80%: pest or weed control at 200 ppm [5] | inhibition of growth at 20 ppm [1] | inhibition of growth at 20 ppm [2] | pest or weed control at 200 ppm [7] | pest or weed control at 200 ppm (Alternaria solani) | inhibition of growth at 20 ppm [3] | inhibition of growth at 20 ppm [4]

COc1ncc(Nc2cc(F)nc(F)c2)nc1C(=O)NCC1(C)CCOC2(CCC2)C1 (centres unmarked) [Compound P-34]
≥ 80%: pest or weed control at 200 ppm [7] | inhibition of growth at 20 ppm [3] | pest or weed control at 200 ppm [6]

COc1ncc(Nc2cc(F)cc(F)c2)nc1C(=O)NC1(C)CC1 [Compound P-37, 6-(3,5-difluoroanilino)-3-methoxy-N-(1-methylcyclopropyl) pyrazine-2-carboxamide]
≥ 80%: pest or weed control at 200 ppm [5] | inhibition of growth at 20 ppm [1] | inhibition of growth at 20 ppm [2] | pest or weed control at 200 ppm [7] | pest or weed control at 200 ppm (Alternaria solani) | inhibition of growth at 20 ppm [3] | pest or weed control at 200 ppm [6]

COc1ncc(Nc2cc(F)cc(F)c2)nc1C(=O)NC(C)CCCC(C)C (centres unmarked) [Compound P-40, 6-(3,5-difluoroanilino)-N-(1,5-dimethylhexyl)-3-methoxy-pyrazine-2-carboxamide]
≥ 80%: pest or weed control at 200 ppm [5] | inhibition of growth at 20 ppm [1] | inhibition of growth at 20 ppm [2] | pest or weed control at 200 ppm [7] | inhibition of growth at 20 ppm [3] | inhibition of growth at 20 ppm [4] | pest or weed control at 200 ppm [6]

CC1(NC(=O)c2cncc(Nc3cc(F)cc(F)c3)n2)CCCC1 [Compound P-48, 6-(3,5-difluoroanilino)-N-(1-methylcyclopentyl) pyrazine-2-carboxamide]
≥ 80%: inhibition of growth at 20 ppm [1] | inhibition of growth at 20 ppm [2] | inhibition of growth at 20 ppm [3] | inhibition of growth at 20 ppm [4]
